Source: ChEMBL document CHEMBL3714713, “4-phenyl-pyrimido [4,5-b] indole derivatives” (2004)
pIC50: −log10 of the molar value. Active and inactive are the calls of the source. No cut-off for these calls is given here.

Tests used:
[1] = system: Mus musculus; test: Inhibition of anti-CD3 antibody-induced IL4 production in Balb/c mouse dosed intravenously 5 mins before anti-CD3 antibody injection and measured 2 hrs post-challenge by ELISA; type: functional, organism-based
[2] = system: Mus musculus; test: Inhibition of anti-CD3 antibody-induced IL2 production in Balb/c mouse dosed intravenously 5 mins before anti-CD3 antibody injection and measured 2 hrs post-challenge by ELISA; type: functional, organism-based
[3] = system: Mus musculus; test: Inhibition of anti-CD3 antibody-induced IFNgamma production in Balb/c mouse dosed intravenously 5 mins before anti-CD3 antibody injection and measured 2 hrs post-challenge by ELISA; type: functional, organism-based
[4] = target: T1, Dual specificity mitogen-activated protein kinase kinase 7 (Homo sapiens, UniProt O14733); test: Inhibition of GST-tagged human MKK7 expressed in Escherichia coli (BL21(DE3) pLysS) co-expressing human MEKK catalytic domain using biotinylated and GST-tagged rat GST-KN-SAPKalpha substrate incubated for 1 hr by time-resolved fluorescence based assay
T1 sequence (O14733 whole entry): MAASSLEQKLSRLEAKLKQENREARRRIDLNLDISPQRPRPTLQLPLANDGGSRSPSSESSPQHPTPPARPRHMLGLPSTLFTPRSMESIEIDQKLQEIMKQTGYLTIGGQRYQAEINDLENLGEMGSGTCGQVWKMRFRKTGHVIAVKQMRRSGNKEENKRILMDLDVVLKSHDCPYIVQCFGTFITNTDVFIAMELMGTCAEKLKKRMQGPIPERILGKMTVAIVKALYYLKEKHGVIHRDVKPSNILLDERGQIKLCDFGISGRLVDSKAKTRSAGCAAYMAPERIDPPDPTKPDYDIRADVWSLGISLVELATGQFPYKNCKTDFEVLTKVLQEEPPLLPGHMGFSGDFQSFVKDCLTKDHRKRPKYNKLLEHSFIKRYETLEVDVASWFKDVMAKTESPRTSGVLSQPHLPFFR

| Compound | Activity [1] | Activity [2] | Activity [3] | pIC50 [4] |
| --- | --- | --- | --- | --- |
| N#Cc1ccc2[nH]c3nc(N)nc(-c4ccccc4)c3c2c1 | Active | Active | Active |  |
| CN(C)c1ccc(-c2ncnc3[nH]c4ccc(C#N)cc4c23)cc1 | Active | Active | Active |  |
| CN(C)c1ccc(-c2ncnc3[nH]c4ccc(C(N)=O)cc4c23)cc1 | Active | Active | Active | 6.00 |
| COc1ccc(-c2ncnc3[nH]c4ccc(C(N)=O)cc4c23)cc1 | Active | Active | Active |  |
| NC(=O)c1ccc2[nH]c3ncnc(-c4cccc(N)c4)c3c2c1 | Active | Active | Active |  |
| N#Cc1ccc2[nH]c3ncnc(-c4ccc(F)cc4)c3c2c1 | Active | Active | Active |  |
| COc1ccc(-c2ncnc3[nH]c4ccc(O)cc4c23)cc1 | Active | Active | Active | ≥ 6.00 |
| COc1ccc(-c2ncnc3[nH]c4ccc(OC)cc4c23)cc1 | Active | Active | Active |  |
| COc1ccc(-c2ncnc3[nH]c4ccc(C#N)cc4c23)cc1 | Active | Active | Active |  |
| NC(=O)c1ccc2[nH]c3ncnc(-c4ccc(F)cc4)c3c2c1 | Active | Active | Active | ≥ 6.00 |
| Oc1ccc2[nH]c3ncnc(-c4ccc(F)cc4)c3c2c1 | Active | Active | Active | ≥ 6.00 |
| Oc1ccc2[nH]c3ncnc(-c4ccccc4)c3c2c1 | Active | Active | Active | ≥ 6.00 |
| N#Cc1ccc2[nH]c3ncnc(-c4cccc(N)c4)c3c2c1 | Active | Active | Active |  |
| N#Cc1ccc2[nH]c3ncnc(-c4ccccc4)c3c2c1 | Active | Active | Active |  |
| NC(=O)c1ccc2[nH]c3ncnc(-c4ccccc4)c3c2c1 | Active | Active | Active | ≥ 6.00 |
| COc1ccc2[nH]c3ncnc(-c4ccccc4)c3c2c1 | Active | Active | Active |  |
| NC(=O)c1ccc2[nH]c3nc(N)nc(-c4ccccc4)c3c2c1 | Active | Active | Active | ≥ 6.00 |
